Experimental data from US20080206198A1, “Compounds and methods for pharmico-gene therapy of epithelial sodium channel associated disorders” (priority 2003, published 2008).

How the values were obtained:
[1] = test system: polarized human airway epithelial cells; conditions: hypotonic EGTA solution alone; cited from earlier work
mouse lung = test: Intranasal AAV2-Luc with anthracyclines in Balb/c mice (lung luciferase); format: in vivo; conditions: 10% HDE intranasal, day 7
Text: (§1) Animals were followed for seven days post dose.
The dose of modulator was based on the Human Dose Equivalent (HDE) and is summarized below in Table 4. For intranasal dose administration, the dose was held constant at 10% of the HDE.
On the day of sacrifice, the left lung was clamped off at the level of the extrapulmonary bronchi, removed and frozen on dry ice. The left lung was homogenized and processed for luciferase expression using Promega's luciferase assay system (Madison, Wis.). Luminescence was measured using the Berthold AutoLumat LB953 instrument. Samples were normalized for total protein using Pierce's Coomassie Plus Protein Assay Reagent (Rockford, Ill.).

Balb/c mice = test: Safety of anthracyclines in Balb/c mice; format: in vivo, mouse; conditions: intranasal, 10% HDE
Text: as §1
Safety endpoints included morbidity and mortality, clinical observations, body weights, gross necropsy observations and histopathology. Transduction endpoints included luciferase and GFP analysis.

HeLa cells = test: AAV2 FLAG-Luc transduction of HeLa cells (luciferase screen); format: cell-based, human
Text: A. To screen for agents that enhance rAAV transduction, any number of cells can be used. A range of concentrations of the agent to be tested can be determined based on, for instance desirable profiles of the agent, desirable toxicity profiles of the agent and/or concentration of the agents employed in vivo. The usefulness of the cell type chosen for the screen can be confirmed by testing compounds, e.g., proteasome inhibitors such as LLnL and ZLL which are known to increase rAAV transduction. For example, a AAV2 FLAG-Luc vector was employed to transduce HeLa, ferret fibroblasts, IB3 and Huh (liver) cells in the presence or absence of the proteasome inhibitor MG132. MG132 was confirmed to enhance AAV transduction in all cell types tested: HeLa cell transduction was enhanced about 500-fold at 80 μM, and 200-fold at 40 μM, MG132; ferret fibroblast cell transduction was enhanced about 200-fold at 20 μM, and 17-fold at 4 μM, MG132; IB3-1 cell transduction was enhanced about 30 to 70-fold at 20 to 80 μM MG132; and Huh-7 cell transduction was enhanced about 15-fold at 20 to 80 μM MG132. There was no difference in rAAV transduction efficiency in HeLa cells when either DMSO or ETOH was used as a vehicle for MG132. B. HeLa cells were selected to screen for additional agents that enhance rAAV transduction, although any cell strain or line; or primary cells, may be employed. […] The range of concentrations of the agents to be tested were selected based on solubility profiles, toxicity profiles and/or concentrations previously employed in vivo.
HeLa cells were infected for 2 hours with an MOI of 100 rAAV in the presence of agents, e.g., ritonavir (Norvir) (1, 10 and 100 μM), cyclosporin A (2.5, 25 and 250 μg/ml), epoxomicin (1, 10 and 50 μM), alcacinomycin A (5, 50 or 500 μM), chymostatin (1, 10 and 100 μM), bestatin (1, 10 and 100 μM), doxorubicin (adriamycin) (0.1, 1 and 10 μM), camptothecin (camptosar) (1, 10 and 100 μM), eicosapentanoic acid (1, 10 and 100 μM), tannic acid (2, 20, 200 and 2000 μM), simvastatin, prodrug (2, 20 and 200 μM), cisplatin (0.2, 2 and 20 μg/mL), and chloroquine (4, 40 and 400 μM). Forty-eight hours after infection, cells were harvested for analysis. rAAV transduction was measured by removing the media from the cell cultures, adding 100 μL reporter lysis buffer (RLB) and freezing. The supernatant was thawed and transferred to microfuge tubes, freeze thawed an additional 2 times, clarified by centrifugation for 10 minutes and then analyzed for reporter gene expression on the lumometer. Protein was determined by Bradford analysis and results were expressed as relative light units per mg protein (RLU/mg).
Based on results with doxorubicin, a small number of FDA approved anthracyclines were tested for their relative in vitro and in vivo activities on AAV transduction. HeLa cells were infected with 100 ppc AAV2FLAG-Luc for 2 hours in the presence of different anthracyclines, e.g., doxorubicin, daunarubicin (Cerubidine), epirubicin (Ellence™), and idarubicin (Idamycin®), and cells harvested 48 hours later. The anthracyclines were pharmaceutical grade, and prepared according to the manufacturer's instructions. Prior to use, the agents were diluted in sterile water to an equal mass, e.g., 0.6 μg/mL, 3 μg/mL and 6 μg/mL. For example, 3 μg/mL idamycin increased luciferase expression by over 5000-fold while doxorubin increased luciferase expression by 58-fold. Generally, the potency was as follows: idarubicin>daunarubicin>epirubicin>doxorubicin.

| SMILES | increase of AAV transduction from the apical surface [1] [fold] | Fold Increase in luciferase expression (mouse lung; both sexes) | luciferase expression, Average (mouse lung; both sexes) | Fold Increase in luciferase expression (mouse lung; female) | luciferase expression, Average (mouse lung; female) | Fold Increase in luciferase expression (mouse lung; male) | luciferase expression, Average (mouse lung; male) | mortality and clinical observations (Balb/c mice; 7 days) | body weight (Balb/c mice; over the week) | increase in luciferase expression (HeLa cells; 3 μg/mL, 100 ppc AAV2FLAG-Luc, harvest 48 hours) | order of potency among anthracyclines (HeLa cells; 0.6, 3 and 6 μg/mL) |
| --- | --- | --- | --- | --- | --- | --- | --- | --- | --- | --- | --- |
| O=C(O)CN(CCOCCOCCN(CC(=O)O)CC(=O)O)CC(=O)O [EGTA] | 7 to 10 |  |  |  |  |  |  |  |  |  |  |
| CC(=O)[C@]1(O)Cc2c(O)c3c(c(O)c2[C@@H](O[C@H]2C[C@H](N)[C@H](O)[C@H](C)O2)C1)C(=O)c1ccccc1C3=O [Idamycin, idarubicin] |  | 90 | 5.06E+05 | 57 | 2.02E+05 | 111 | 8.11E+05 | early mortality of some animals, ruffled hair coats and sick mice | lost considerable body weight | over 5000 fold | idarubicin>daunarubicin>epirubicin>doxorubicin |
